Literature values as cited in patent US20100234388A1, “SUBSTITUTED PDE5 INHIBITORS” (AUSPEX PHARMACEUTICALS, INC., priority 2006, published 2010).

Experiments:
[1] = human, in vivo
PDE5 versus PDE6 = details: compared with sildenafil and vardenafil
[2] = human, in vivo; remark: listed apart in the source

Structure (SMILES): CN1CC(=O)N2[C@H](c3ccc4c(c3)OCO4)c3[nH]c4ccccc4c3C[C@@H]2C1=O [tadalafil, Tadalafil]
- patients with side effects of chromatopsia, increased sensitivity to light, and blurred vision [1]: less than 0.1%
- selectivity for PDE5 versus PDE6 (PDE5 versus PDE6): much more selective
- exercise tolerance [2]: improve exercise tolerance
